Article PMC9117146, “Immunogenicity and therapeutic targeting of a public neoantigen derived from mutated PIK3CA” (Nature Medicine, 2022)
Values belong to the molecule of their own block, whether it stands above or below them. No end group written: not given here. *: point of attachment. 5FAM = O=C1OC2(c3ccc(O)cc3Oc3cc(O)ccc32)c2ccc(C(=O)*)cc21

Tests used:
HLA-A*03:02 = HLA-A*03:02 (Homo sapiens, UniProt P04439, E176V/L180Q); assay: Differential scanning fluorimetry, peptide/HLA complex; type: binding; settings: DSF, SYPRO Orange, 15 μM protein, HBS-EP pH 7.4, representative melt curve (n=3 technical replicates)
[1] = system: peptide-pulsed HLA-A*03:01+ target cells; assay: Intracellular TNFα of TCR-transduced T cells with peptide-pulsed HLA-A*03:01+ targets; type: cell-based
[2] = molecular target: HLA-A*03:01 (heavy chain with β2-microglobulin) (human); assay: fluorescence polarisation; fluorescence anisotropy; dissociation of fluorescein-labeled peptide from 100 nM purified peptide/HLA-A*03:01 complex with 100 μM unlabeled peptide; 37 °C; 20 mM NaH2PO4, 75 mM NaCl, pH 7.4; t1/2 = 0.693/koff of the slowest rate

Molecule: IVFMGWTTK [peptide derived from transmembrane protein 87B (TM87B), position 407-415]
activation of T cells by peptide (in words) [1]: failed to activate TCR4-transduced T cells

Molecule: fluorescein-labeled pMut derivative (P5 Gly substituted with a 5-carboxyfluorescein-modified lysine) (peptide)
t1/2 of the peptide/HLA complex [2]: 5.5 h

Other lines, results leading:

Tm (melting temperature of peptide/HLA complex) (HLA-A*03:02): 38.7 oC
Molecule: AHHGGWTTK [pWT, wild-type PI3Kα counterpart peptide]

t1/2 of the peptide/HLA complex [2]: 0.078 h
B1: fluorescein-labeled pWT derivative (P5 Gly substituted with a 5-carboxyfluorescein-modified lysine) (peptide)
peptide: AHHGK(5FAM)WTTK
modifications: also: 5-carboxyfluorescein-modified Lys at P5 (replacing Gly)
